Measurements from patent publication US8178579B2, “Dioxanes and uses thereof” (President and Fellows of Harvard College, priority 2001, dated 2012).

Tested on: histone deacetylation
Test: acetylated lysine / acetylated histone in cells (AcLysine cytoblot, immunofluorescence, Western blot)
Format: cell-based, human
Conditions: A549 (also BS-C-1) cells, tubacin, niltubacin 2 μM, histacin 20 μM, library ~2-5 μM, 18 h
Procedure: A549 cells were seeded at a density of 4,000 cells/50 μl in DMEM+ in white tissue culture-treated 384-well plates (Nalge Nunc) using a Multidrop 384 liquid dispenser (Labsystems). Library small molecules were pinned twice (100-150 nl/pin) from ˜1 mM stock solutions (DMSO) and incubated for 18 hours. For the ITSA1+AcTubulin assay, ITSA1 (50 μM) was added four hours after pin-transfer of library molecules. Media was aspirated with a 16-channel wand. For the acetylated α-tubulin cytoblot (AcTubulin), 40 μl/well of fixation solution (3.7% formaldehyde (1:10 from 37% stock) in Tris-buffered saline (TBS, 0.15 M NaCl, 0.02 M Tris-Cl, pH 7.4) was added and plates incubated for twenty minutes at room temperature. After aspiration, 30 μl 100% methanol (−20° C.) was added and incubated for five minutes at room temperature. After aspirating and washing three times with 90 μl of antibody dilution buffer (ADB, TBS/2% bovine serum albumin, 0.1% TritonX-100) the wells were blocked for twenty minutes in ADB. After aspirating, 20 μl/well of ADB containing anti-acetylated α-tubulin antibody (mouse; 1:1000) and anti-mouse IgG horseradish peroxidase (HRP)-conjugated antibody (1:750) was added and incubated overnight (4° C.). For the anti-acetyl lysine cytoblot (AcLysine), 40 μl/well of fixation solution (95% ethanol/5% acetic acid, −20° C.) was added and plates incubated for five minutes at room temperature. Wells were aspirated, washed, and blocked in ADB as for the AcTubulin protocol. After aspirating, 20 μl/well of ADB containing anti-acetylated lysine (rabbit; 1:375) and anti-rabbit IgG-HRP conjugated antibody (1:750) was added and incubated overnight (4° C.). For the anti-acetylated histone H3 (AcHistH3) and anti-acetylated histone H4 (AcHistH4) cytoblots, cells were fixed, washed, and blocked in ADB as for the AcLysine cytoblot. After aspirating, 20 μl/well of ADB containing anti-acetylated histone H3 antibody (rabbit, 1:500) or anti-acetylated histone H4 antibody (rabbit, 1:500) was added and incubated for two hours at room temperature. Wells were aspirated and washed twice with 80 μl of ADB. After aspirating, 20 μl/well of ADB containing anti-rabbit IgG-HRP conjugated antibody (1:1000) was added and incubated for two hours (room temperature). For the AcTubulin and AcLysine assays, plates were washed three times with TBS before adding 20 μl/well of enhanced chemiluminescent (ECL) mixture. For the AcHistH3 and AcHistH4 assays, plates were washed three times with 80 μl TBS with 1% Triton X-100 and once with 80 μl TBS before adding 20 μl/well of ECL mixture. Plates were read on an Analyst plate reader (LJL Biosystems) with an integration time of 0.1 seconds.
1,3-dioxanes from single polystyrene macrobeads were prepared as 1-2 mM stock solutions in DMSO as described [Hubbert, C., Guardiola, A., Shao, R., Kawaguchi, Y., Ito, A., Nixon, A., Yoshida, M., Wang, X. F., and Yao, T. P. (2002). HDAC6 is a microtubule-associated deacetylase. Nature 417, 455-458]. Bead decoding and structure determination were as described [See for example, Hubbert, C., Guardiola, A., Shao, R., Kawaguchi, Y., Ito, A., Nixon, A., Yoshida, M., Wang, X. F., and Yao, T. P. (2002). HDAC6 is a microtubule-associated deacetylase. Nature 417, 455-458; and Piperno, G., LeDizet, M., and Chang, X. J. (1987). Microtubules containing acetylated alpha-tubulin in mammalian cells in culture. J. Cell Biol. 104, 289-302]. Small molecules (˜2-5 μM) of interest were retested using a sample from the plate of stock solutions by fluorescence microscopy and comparison to the effects of trichostatin (300 nM to 1 μM).
A549 cells were seeded at a density of 50,000/200 μl in DMEM+ on the surface of glass coverslips on top of Parafilm in a 10 cm dish and allowed to attach overnight. For detection of acetylated α-tubulin, cells were permeabilized and fixed with 100 mM K-PIPES, pH 6.8, 10 mM EGTA, 1 mM MgCl2, 0.2% triton X-100, 0.2% glutaraldehyde for fifteen minutes. […]

**Q.** Which “effect on histone deacetylation / lysine or histone acetylation in cells” value does the source give for CC(/C=C/C(=O)NO)=C\[C@@H](C)C(=O)c1ccc(N(C)C)cc1 [TSA, trichostatin A, reference compound] here?
**A.** The value was “an inhibitor of both α-tubulin and histone deacetylation”.

**Q.** O=C(CCCCCCC(=O)Nc1ccc([C@@H]2OC(c3ccc(CO)cc3)C[C@H](CSc3nc(-c4ccccc4)c(-c4ccccc4)o3)O2)cc1)NO (stereo partly shown) [tubacin] was tested. Which “effect on histone deacetylation / lysine or histone acetylation in cells” value did it give?
**A.** The value was “did not affect histone acetylation”.

**Q.** And the “effect on histone deacetylation / lysine or histone acetylation in cells” value (listed as 415 N3)?
**A.** The value was “no effect on lysine acetylation”.

**Q.** What about the “effect on histone deacetylation / lysine or histone acetylation in cells” value (listed as JCWII114) of the same compound?
**A.** Its value is “no visible effect on histone deacetylation”.
